From patent US6342601B1, “Compounds” (AstraZeneca AB, priority 1997, dated 2002)
Counter-ions that a name gives are not always drawn.

Row | melting point | SMILES
1 | 154 to 156 °C | CC(C)Cc1nn(C)c(=O)c2cc(C(O)c3cccnc3)sc12 (stereo not drawn) (as salt: hydrochloride) [Example 40, 2-[(1-Hydroxy-1-pyridin-3-yl)methyl]-5-methyl-7-(2-methylpropyl)thieno[2,3-d]pyridazin-4(5H)-one Hydrochloride]
2 | > 230 °C (dec.) | CC(C)Cc1nn(C)c(=O)c2cc(Cc3cnc4ccccc4c3)sc12 (as salt: hydrochloride) [Example 44, 5-Methyl-7-(2-methylpropyl)-2-(3-quinolinylmethyl)thieno[2,3-d]pyridazin-4(5H)-one Hydrochloride]
3 | 110 to 112 °C | CC(C)Cc1nn(C)c(=O)c2cn(Cc3cccc4ccccc34)cc12 [Example 1, 2,6-Dihydro-2-methyl-4-(2-methylpropyl)-6-(1-naphthalenylmethyl)-1H-pyrrolo[3,4-d]pyridazin-1-one]
4 | 96 to 98 °C | COCCn1nc(CC(C)C)c2cn(Cc3cccc4ccccc34)cc2c1=O [Example 2, 2,6-Dihydro-2-(2-methoxyethyl)-4-(2-methylpropyl)-6-(1-naphthalenylmethyl)-1H-pyrrolo[3,4-d]pyridazin-1-one]
5 | 167 °C | CC(C)Cc1nn(C)c(=O)c2c(SCCCC(=O)O)n(Cc3cccc4ccccc34)cc12 [Example 4, 4-{[2,6-Dihydro-2-methyl-4-(2-methylpropyl)-6-(1-naphthalenylmethyl)-1-oxo-1H-pyrrolo[3,4-d]pyridazin-7-yl]thio}butanoic Acid]
6 | 164 to 166 °C | CC(C)Cc1nn(C)c(=O)c2c([S+]([O-])CCCO)n(Cc3cccc4ccccc34)cc12 (stereo not drawn) [Example 5 (A), 2,6-Dihydro-7-[(3-hydroxypropyl)sulfinyl]-2-methyl-4-(2-methylpropyl)-6-(1-naphthalenylmethyl)-1H-pyrrolo[3,4-d]pyridazin-1-one]
7 | 165 to 167 °C | CC(C)Cc1nn(C)c(=O)c2cc(C(O)c3cccc4ccccc34)sc12 (stereo not drawn) [Example 6, 2-[1-Hydroxy-1-(1-naphthalenyl)methyl]-5-methyl-7-(2-methylpropyl)thieno[2,3-d]pyridazin-4(5H)-one]
8 | 121 °C | CC(C)Cc1nn(C)c(=O)c2cc(C(=O)c3cccc4ccccc34)sc12 [Example 9, 5-Methyl-7-(2-methylpropyl)-2-(1-naphthalenylcarbonyl)thieno[2,3-d]pyridazin-4(5H)-one]
9 | 60 to 65 °C | CC(C)Cc1nn(C)c(=O)c2c([S+]([O-])CCCO)c(Cc3cccc4ccccc34)sc12 (stereo not drawn) [Example 10, 3[(3-Hydroxypropyl)sulfinyl]-5-methyl-7-(2-methylpropyl)-2-(1-naphthalenylmethyl)thieno[2,3-d]pyridazin-4(5H)-one]
10 | 154 to 156 °C | CC(C)Cc1nn(C)c(=O)c2c(SCCCC(=O)O)c(Cc3cccc4ccccc34)sc12 [Example 11, 4-{[4,5-Dihydro-5-methyl-7-(2-methylpropyl)-2-(1-naphthalenylmethyl)-4-oxothieno[2,3-d]pyridazin-3-yl]thio}butanoic Acid]
11 | 160 to 163 °C | CC(C)Cc1nn(C)c(=O)c2c(S(=O)(=O)CCCO)c(Cc3cccc4ccccc34)sc12 [Example 13, 3-[(3-Hydroxypropyl)sulfonyl]-5-methyl-7-(2-methylpropyl)-2-(1-naphthalenylmethyl)thieno[2,3-d]pyridazin-4(5H)-one]
12 | 97 to 98 °C | CC(C)Cc1nn(C)c(=O)c2cc(Cc3ccccc3)sc12 [Example 15, 5-Methyl-7-(2-methylpropyl)-2-phenylmethylthieno[2,3-d]pyridazin-4(5H)-one]
13 | 60 to 65 °C | CC(C)Cc1nn(C)c(=O)c2c(SCCCO)c(Cc3ccccc3)sc12 [Example 16, 3-[(3-Hydroxypropy)thio]-5-methyl-7-(2-methylpropyl)-2-phenylmethylthieno[2,3-d]pyridazin-4(5H)-one]
14 | 105 to 107 °C | CC(C)Cc1nn(C)c(=O)c2c(S(=O)(=O)CCCO)c(Cc3ccccc3)sc12 [Example 17, 3-[(3-Hydroxypropyl)sulfonyl]-5-methyl-7-(2-methylpropyl)-2-phenylmethylthieno[2,3-d]pyridazin-4(5H)-one]
15 | 104 °C | CC(C)Cc1nn(C)c(=O)c2cn(Cc3ccccc3)cc12 [Example 18, 2,6-Dihydro-2-methyl-4-(2-methylpropyl)-6-phenylmethyl-1H-pyrrolo[3,4-d]pyridazin-1-one]
16 | 131 to 132 °C | CC(C)Cc1nn(C)c(=O)c2c(Sc3ccccn3)n(Cc3ccccc3)cc12 [Example 19, 2,6-Dihydro-2-methyl-4-(2-methylpropyl)-6-phenylmethyl-7-(2-pyridinylthio)-1H-pyrrolo[3,4-d]pyridazin-1-one]
17 | 91 to 92 °C | CC(C)Cc1nn(C)c(=O)c2c(SCCCO)n(Cc3ccccc3)cc12 [Example 20, 2,6-Dihydro-7-[(3-hydroxypropyl)thio]-2-methyl-4-(2-methylpropyl)-6-phenylmethyl-1H-pyrrolo[3,4-d]pyridazin-1-one]
18 | 154.5 to 155 °C | COc1cc(Cn2cc3c(CC(C)C)nn(C)c(=O)c3c2)cc(OC)c1OC [Example 21, 2,6-Dihydro-2-methyl-4-(2-methylpropyl)-6-(3,4,5-trimethoxyphenyl)methyl-1H-pyrrolo[3,4-d]pyridazin-1-one]
19 | 221 to 222 °C | CC(C)Nc1nn(C)c(=O)c2cn(Cc3cccc4ccccc34)cc12 [Example 22, 2,6-Dihydro-2-methyl-6-(1-naphthalenylmethyl)-4-(1-methylethyl)amino-1H-pyrrolo[3,4-d]pyridazin-1-one]
20 | 91 to 93 °C | CC(C)Cc1nn(C)c(=O)c2cn(Cc3ccncc3)cc12 [Example 23, 2,6-Dihydro-2-methyl-4-(2-methylpropyl)-6-(4-pyridinyl)methyl-1H-pyrrolo[3,4-d]pyridazin-1-one]
21 | 166 to 167 °C | CC(C)Cc1nn(C)c(=O)c2cn(Cc3cccc4ccccc34)nc12 [Example 32, 2,5-Dihydro-5-methyl-7-(2-methylpropyl)-2-(1-naphthalenylmethyl)-4H-pyrazolo[3,4-d]pyridazin-4-one]
22 | 163 to 164 °C | CC(C)Cc1nn(C)c(=O)c2nn(Cc3cccc4ccccc34)cc12 [Example 33]
23 | 141 to 142 °C | CC(C)Cc1nn(C)c(=O)c2c(SCCCO)n(Cc3cccc4ccccc34)nc12 [Example 34, 2,5-Dihydro-3-[(3-hydoxypropyl)thio]-5-methyl-7-(2-methylpropyl)-2-(1-naphthalenylmethyl)-4H-pyrazolo[3,4-d]pyridazin-4-one]
24 | 110 to 112 °C | CC(C)Cc1nn(C)c(=O)c2cc(C(O)c3cccc4ccccc34)oc12 (stereo not drawn) [Example 35, 2-[1-Hydroxy-1-(1-naphthalenyl)methyl]-5-methyl-7-(2-methylpropyl)furo[2,3-d]pyridazin-4(5H)one]
25 | 73 to 75 °C | CC(C)Cc1nn(C)c(=O)c2cc(Cc3cccc4ccccc34)oc12 [Example 36, 5-Methyl-7-(2-methylpropyl)-2-(1-naphthalenylmethyl)furo[2,3-d]pyridazin-4(5H)one]
26 | 106 to 108 °C | CC(C)Cc1nn(C)c(=O)c2cc(C(O)c3cccc(C#N)c3)oc12 (stereo not drawn) [Example 37, 2-[1-Hydroxy-1-(3-cyanophenyl)methyl]-5-methyl-7-(2-methylpropyl)furo[2,3-d]pyridazin4(5H)one]
27 | 76 to 78 °C | CC(C)Cc1nn(C)c(=O)c2cc(Cc3cccc(C#N)c3)oc12 [Example 38, 2-(3-Cyanophenyl)methyl-5-methyl-7-(2-methylpropyl)furo[2,3-d]pyridazin-4(5H)one]
28 | 112 to 114 °C | CC(C)Cc1nn(C)c(=O)c2cc(Cc3ccccc3C(F)(F)F)sc12 [Example 39, 2-(2-Trifluoromethylphenyl)methyl-5-methyl-7-(2-methylpropyl)thieno[2,3-d]pyridazin-4(5H)-one]
29 | 118 to 119 °C | CC(C)Cc1nn(C)c(=O)c2cc(Cc3cccnc3)sc12 [Example 41, 5Methyl-7-(2-methylpropyl)-2-(3-pyridinylmethyl)thieno[2,3-d]pyridazin-4(5H)-one]
30 | 85 to 86 °C | CC(C)Cc1nn(C)c(=O)c2cc(Cc3c(F)cccc3Cl)sc12 [Example 42, 2-(2-Chloro-6-fluorophenyl)methyl-5-methyl-7-(2-methylpropyl)thieno[2,3-d]pyridazin-4(5H)-one]
